Measurements published in ChEMBL document CHEMBL4342489, “Structure-Activity Relationship Evaluation of Wasp Toxin β-PMTX Leads to Analogs with Superior Activity for Human Neuronal Sodium Channels” (ACS Med Chem Lett, 2020).
Activity calls are given as the source filed them. The calls are words filed in the database; no cut-off is given here. Non-standard residues stand in square brackets, D forms with d. Residues, ends and D or L forms follow the SMILES beside them. 1Nal = N[C@@H](Cc1cccc2ccccc12)C(=O)O; 2Nal = N[C@@H](Cc1ccc2ccccc2c1)C(=O)O

Key:
[1] = molecular target: Sodium channel protein type 5 subunit alpha (Homo sapiens, UniProt Q14524); experiment: Activation of human Nav1.5 expressed in HEK293 cells assessed as ratio of compound activation AUC to baseline activation AUC at 3.3 uM at -120 mV holding potential by Qpatch assay; format: cell-based; conditions: hek293, 3.3 µM
[2] = molecular target: Sodium channel protein type 1 subunit alpha (Homo sapiens) (UniProt P35498); experiment: Activation of human Nav1.1 expressed in HEK293 cells assessed as ratio of compound activation AUC to baseline activation AUC at 0.12 uM at -120 mV holding potential by Qpatch assay; format: cell-based
[3] = molecular target: Sodium channel protein type 1 subunit alpha (Homo sapiens) (UniProt P35498); experiment: Activation of human Nav1.1 expressed in HEK293 cells assessed as ratio of compound activation AUC to baseline activation AUC at 3.3 uM at -120 mV holding potential by Qpatch assay; format: cell-based
[4] = molecular target: Sodium channel protein type 1 subunit alpha (Homo sapiens) (UniProt P35498); experiment: Activation of human Nav1.1 expressed in HEK293 cells at 3.3 uM at -120 mV holding potential by Qpatch assay relative to control; format: cell-based
[5] = molecular target: Sodium channel protein type 1 subunit alpha (Homo sapiens) (UniProt P35498); experiment: Activation of human Nav1.1 expressed in HEK293 cells assessed as ratio of compound activation AUC to baseline activation AUC at 0.37 uM at -120 mV holding potential by Qpatch assay; format: cell-based
[6] = molecular target: Sodium channel protein type 2 subunit alpha (Homo sapiens) (UniProt Q99250); experiment: Activation of human Nav1.2 expressed in CHOK1 cells assessed as ratio of compound activation AUC to baseline activation AUC at 3.3 uM at -120 mV holding potential by Qpatch assay; format: cell-based
[7] = molecular target: Sodium channel protein type 8 subunit alpha (Homo sapiens) (UniProt Q9UQD0); experiment: Activation of human Nav1.6 expressed in HEK293 cells assessed as ratio of compound activation AUC to baseline activation AUC at 3.3 uM at -120 mV holding potential by Qpatch assay; format: cell-based
Sodium channel protein type 8 subunit alpha (Homo sapiens), sequence (Q9UQD0 whole entry, looked up): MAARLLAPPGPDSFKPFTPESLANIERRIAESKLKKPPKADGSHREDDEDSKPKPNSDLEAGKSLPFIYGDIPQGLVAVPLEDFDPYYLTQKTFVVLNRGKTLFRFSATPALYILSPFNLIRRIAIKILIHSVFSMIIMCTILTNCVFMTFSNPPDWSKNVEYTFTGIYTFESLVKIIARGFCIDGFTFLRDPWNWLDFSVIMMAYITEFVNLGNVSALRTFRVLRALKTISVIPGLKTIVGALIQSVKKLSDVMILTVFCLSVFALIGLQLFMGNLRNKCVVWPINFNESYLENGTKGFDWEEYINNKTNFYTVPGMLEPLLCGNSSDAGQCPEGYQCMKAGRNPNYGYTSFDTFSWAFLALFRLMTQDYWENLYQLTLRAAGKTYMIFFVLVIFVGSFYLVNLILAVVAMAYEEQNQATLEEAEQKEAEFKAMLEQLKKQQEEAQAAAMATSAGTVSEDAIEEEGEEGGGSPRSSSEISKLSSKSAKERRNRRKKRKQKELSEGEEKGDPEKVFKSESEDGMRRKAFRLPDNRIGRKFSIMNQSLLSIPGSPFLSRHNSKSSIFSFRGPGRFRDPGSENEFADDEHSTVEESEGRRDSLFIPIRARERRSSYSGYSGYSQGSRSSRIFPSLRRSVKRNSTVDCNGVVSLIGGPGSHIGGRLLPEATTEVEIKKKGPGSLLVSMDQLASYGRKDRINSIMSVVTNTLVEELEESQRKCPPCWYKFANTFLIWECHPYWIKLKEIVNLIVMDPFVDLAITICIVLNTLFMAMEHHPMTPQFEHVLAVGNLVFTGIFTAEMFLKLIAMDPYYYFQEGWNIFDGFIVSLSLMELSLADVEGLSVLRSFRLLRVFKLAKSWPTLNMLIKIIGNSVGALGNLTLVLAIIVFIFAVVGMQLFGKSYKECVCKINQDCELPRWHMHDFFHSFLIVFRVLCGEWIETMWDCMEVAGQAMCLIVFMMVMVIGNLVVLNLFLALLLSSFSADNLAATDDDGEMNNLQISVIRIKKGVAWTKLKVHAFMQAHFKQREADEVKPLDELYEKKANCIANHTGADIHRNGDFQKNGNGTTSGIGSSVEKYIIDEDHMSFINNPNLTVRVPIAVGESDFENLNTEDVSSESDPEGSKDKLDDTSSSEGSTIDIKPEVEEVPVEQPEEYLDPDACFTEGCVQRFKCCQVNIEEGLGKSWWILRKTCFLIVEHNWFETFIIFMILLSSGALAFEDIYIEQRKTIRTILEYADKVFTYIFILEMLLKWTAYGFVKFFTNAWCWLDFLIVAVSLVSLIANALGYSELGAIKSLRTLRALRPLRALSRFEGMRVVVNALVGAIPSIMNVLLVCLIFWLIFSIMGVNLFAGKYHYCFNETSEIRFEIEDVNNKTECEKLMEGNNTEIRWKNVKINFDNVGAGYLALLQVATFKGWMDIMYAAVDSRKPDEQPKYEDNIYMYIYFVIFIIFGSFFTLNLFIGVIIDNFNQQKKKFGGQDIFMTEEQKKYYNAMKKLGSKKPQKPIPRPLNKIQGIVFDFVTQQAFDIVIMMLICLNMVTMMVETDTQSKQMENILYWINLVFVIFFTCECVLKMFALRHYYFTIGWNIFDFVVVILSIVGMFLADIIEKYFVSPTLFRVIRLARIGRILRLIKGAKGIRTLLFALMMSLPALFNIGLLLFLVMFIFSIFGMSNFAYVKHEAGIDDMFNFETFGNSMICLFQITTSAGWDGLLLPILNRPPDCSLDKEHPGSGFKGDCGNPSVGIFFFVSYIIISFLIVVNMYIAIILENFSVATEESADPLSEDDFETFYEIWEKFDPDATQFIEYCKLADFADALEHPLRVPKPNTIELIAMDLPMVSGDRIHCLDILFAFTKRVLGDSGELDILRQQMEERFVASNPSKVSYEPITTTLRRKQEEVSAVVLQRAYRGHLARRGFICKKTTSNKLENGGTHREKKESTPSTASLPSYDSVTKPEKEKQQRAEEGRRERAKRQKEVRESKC

[8] = molecular target: Sodium channel protein type 4 subunit alpha (Homo sapiens) (UniProt P35499); experiment: Activation of human Nav1.4 expressed in HEK293 cells assessed as ratio of compound activation AUC to baseline activation AUC at 3.3 uM at -120 mV holding potential by Qpatch assay; format: cell-based
[9] = molecular target: Sodium channel protein type 3 subunit alpha (Homo sapiens) (UniProt Q9NY46); experiment: Activation of human Nav1.3 expressed in CHOK1 cells assessed as ratio of compound activation AUC to baseline activation AUC at 3.3 uM at -120 mV holding potential by Qpatch assay; format: cell-based
[10] = molecular target: Sodium channel protein type 1 subunit alpha (Homo sapiens) (UniProt P35498); experiment: Activation of human Nav1.1 expressed in HEK293 cells assessed as ratio of compound activation AUC to baseline activation AUC at 1.11 uM at -120 mV holding potential by Qpatch assay; format: cell-based
[11] = molecular target: Sodium channel protein type 9 subunit alpha (Homo sapiens) (UniProt Q15858); experiment: Activation of human Nav1.7 expressed in HEK293 cells assessed as ratio of compound activation AUC to baseline activation AUC at 3.3 uM at -120 mV holding potential by Qpatch assay; format: cell-based
Sodium channel protein type 9 subunit alpha (Homo sapiens), sequence (Q15858 whole entry, looked up): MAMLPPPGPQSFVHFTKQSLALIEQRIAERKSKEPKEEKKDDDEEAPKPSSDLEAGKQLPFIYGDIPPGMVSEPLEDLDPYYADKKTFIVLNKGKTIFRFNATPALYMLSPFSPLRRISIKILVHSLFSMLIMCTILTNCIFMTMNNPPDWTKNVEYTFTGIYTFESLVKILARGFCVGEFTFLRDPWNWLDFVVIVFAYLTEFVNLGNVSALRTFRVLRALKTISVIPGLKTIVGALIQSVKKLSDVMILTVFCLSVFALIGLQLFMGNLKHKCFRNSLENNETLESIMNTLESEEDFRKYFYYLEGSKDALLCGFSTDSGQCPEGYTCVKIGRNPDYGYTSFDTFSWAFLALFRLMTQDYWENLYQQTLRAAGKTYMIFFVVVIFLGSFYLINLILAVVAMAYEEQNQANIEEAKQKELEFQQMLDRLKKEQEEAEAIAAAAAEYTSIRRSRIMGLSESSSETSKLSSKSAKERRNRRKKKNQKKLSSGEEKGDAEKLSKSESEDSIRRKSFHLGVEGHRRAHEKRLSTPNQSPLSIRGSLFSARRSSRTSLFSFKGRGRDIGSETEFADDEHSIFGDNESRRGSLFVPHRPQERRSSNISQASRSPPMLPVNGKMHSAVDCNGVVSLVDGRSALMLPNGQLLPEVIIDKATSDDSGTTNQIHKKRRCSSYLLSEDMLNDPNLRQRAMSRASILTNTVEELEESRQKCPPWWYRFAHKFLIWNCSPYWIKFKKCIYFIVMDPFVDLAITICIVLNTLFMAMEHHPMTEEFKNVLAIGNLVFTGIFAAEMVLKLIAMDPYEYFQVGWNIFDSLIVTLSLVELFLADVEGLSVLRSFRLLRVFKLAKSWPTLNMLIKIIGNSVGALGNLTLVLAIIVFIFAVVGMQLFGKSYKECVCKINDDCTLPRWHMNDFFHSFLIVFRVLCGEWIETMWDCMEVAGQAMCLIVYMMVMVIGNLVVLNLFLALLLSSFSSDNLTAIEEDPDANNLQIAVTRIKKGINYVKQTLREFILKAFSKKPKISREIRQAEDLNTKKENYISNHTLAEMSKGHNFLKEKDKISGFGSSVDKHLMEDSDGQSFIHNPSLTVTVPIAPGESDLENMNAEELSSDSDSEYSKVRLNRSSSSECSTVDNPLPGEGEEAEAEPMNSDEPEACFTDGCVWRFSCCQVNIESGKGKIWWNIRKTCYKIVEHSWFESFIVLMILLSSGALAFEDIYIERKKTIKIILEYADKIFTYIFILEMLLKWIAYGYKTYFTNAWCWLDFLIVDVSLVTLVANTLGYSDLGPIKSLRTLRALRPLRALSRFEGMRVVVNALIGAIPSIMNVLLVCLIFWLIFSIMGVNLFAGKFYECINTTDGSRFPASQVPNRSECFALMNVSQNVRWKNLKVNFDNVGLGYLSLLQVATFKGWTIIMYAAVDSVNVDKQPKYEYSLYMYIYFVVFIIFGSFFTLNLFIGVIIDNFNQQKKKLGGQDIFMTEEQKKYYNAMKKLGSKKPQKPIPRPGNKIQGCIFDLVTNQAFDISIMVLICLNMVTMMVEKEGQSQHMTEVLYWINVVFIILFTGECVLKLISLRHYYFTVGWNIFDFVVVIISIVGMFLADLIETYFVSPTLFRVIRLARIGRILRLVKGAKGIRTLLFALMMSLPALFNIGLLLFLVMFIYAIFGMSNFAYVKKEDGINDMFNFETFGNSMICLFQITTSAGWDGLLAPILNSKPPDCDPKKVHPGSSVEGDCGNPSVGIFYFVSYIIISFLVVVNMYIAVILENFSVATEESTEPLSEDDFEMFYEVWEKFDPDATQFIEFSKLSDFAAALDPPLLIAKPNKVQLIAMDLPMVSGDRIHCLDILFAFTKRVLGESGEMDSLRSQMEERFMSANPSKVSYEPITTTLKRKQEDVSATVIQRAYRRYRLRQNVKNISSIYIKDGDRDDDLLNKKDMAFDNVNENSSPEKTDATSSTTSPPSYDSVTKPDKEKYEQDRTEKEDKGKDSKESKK

[12] = molecular target: Sodium channel protein type 1 subunit alpha (Mus musculus) (UniProt A2APX8); experiment: Activation of Nav1.1 in C57BL/6 mouse GABAergic cortical neurons assessed as rescue of ICA-121431-induced neuronal firing loss at 300 nM at holding potential -65 mV by current clamp assay

SMILES	Ratio AUC [1]	Ratio AUC [2]	Ratio AUC [3]	Activity [4] [%]	Ratio AUC [5]	Ratio AUC [6]	Ratio AUC [7]	Ratio AUC [8]	Ratio AUC [9]	Ratio AUC [10]	Ratio AUC [11]	Activity [12]
CC[C@H](C)[C@H](NC(=O)[C@H](CCCCN)NC(=O)[C@@H](NC(=O)[C@@H](N)CCCNC(=N)N)[C@@H](C)CC)C(=O)NCC(=O)N[C@@H](CC(C)C)C(=O)N[C@@H](Cc1ccccc1)C(=O)N[C@@H](CC(=O)O)C(=O)N[C@@H](CCC(N)=O)C(=O)N[C@@H](CC(C)C)C(=O)N[C@@H](CO)C(=O)N[C@@H](CCCNC(=N)N)C(=O)N[C@@H](CC(C)C)C(N)=O (H-RIKIGLFDQLSRL-NH2)	1	1	1.4	40	1	0.9	1.3	0.8	1.2	1.1	1.1	
CC[C@H](C)[C@H](NC(=O)[C@H](CCCCN)NC(=O)[C@@H](NC(=O)[C@@H](N)CCCNC(=N)N)[C@@H](C)CC)C(=O)NCC(=O)N[C@@H](CC(C)C)C(=O)N[C@@H](Cc1cccc2ccccc12)C(=O)N[C@@H](CC(=O)O)C(=O)N[C@@H](CCC(N)=O)C(=O)N[C@@H](CC(C)C)C(=O)N[C@@H](CO)C(=O)N[C@@H](CCCNC(=N)N)C(=O)N[C@@H](CC(C)C)C(N)=O (H-RIKIGL[1Nal]DQLSRL-NH2)	1.7	1	3.1		1.2	1.8	3.1	1.4	2	1.8	2.9	Active
CC[C@H](C)[C@H](NC(=O)[C@H](CCCNC(=N)N)NC(=O)[C@@H](NC(=O)[C@@H](N)CCCNC(=N)N)[C@@H](C)CC)C(=O)NCC(=O)N[C@@H](CC(C)C)C(=O)N[C@@H](Cc1ccc2ccccc2c1)C(=O)N[C@@H](CC(=O)O)C(=O)N[C@@H](CCC(N)=O)C(=O)N[C@@H](CC(C)C)C(=O)N[C@@H](CC(C)C)C(=O)N[C@@H](CCCNC(=N)N)C(=O)N[C@@H](CC(C)C)C(N)=O (H-RIRIGL[2Nal]DQLLRL-NH2)	1.3	1.4	12.7	1170	2.5	7.1	8.1	1.6	4.4	5.2	9.6	
